# Data as given in patent publication EP2272342B1, “Herbicidal compositions” (BASF SE, priority 1993, dated 1994).
# Columns and labels:
# [1] = system: cyperus rotundus; test: Field trial in sugar cane plots, tank mix by backpack sprayer: weed control (Example 5); assay type: in vivo
# Method: A field trial is carried out on plots (2 x 20 m) planted with sugar cane and infested with cyperus rotundus in the first or second growing stage and sprayed with a backpack sprayer in different concentrations in a tank mix. The amount of liquid spray broth is 400 I/ha.
# The application rates are 2.7 kg/ha of dimethenamid with 60 g/ha of chlorimuron or with 1.6 kg/ha of a fixed ratio mixture of chlorimuron and diuron (1 : 19) which is commercially available as FRONT®. Visual evaluation is done 30 or 60 days after treatment (DAT) in percentage of control. The expected additive effect value is calculated according to the method of Colby: […]
# [2] = system: Solanum/Chenopodium; test: Small field units in a maize field, 3-way tank-mix spray: weed control (Example 4); assay type: in vivo, solanum nigrum and chenopodium album; settings: 1500 a.i./ha; 14 days after treatment
# Method: Small field units in a maize field, infested with echinochloa crus galli, solanum nigrum and chenopodium album are sprayed with a tank-mix suspension of dimethenamid, sulcotrione and atrazine. The stage of the weeds is "full tillering" of echinochloa and "6-8 leaves stage" for solanum and chenopodium. The lot size is 8 meters in length and 3 meters in broadth. […] 14 days after treatment the efficacy is evaluated.
# [3] = system: echinochloa crus galli; test: as above; assay type: in vivo; settings: 1500 a.i./ha; 14 days after treatment
# Source text: Small field units in a maize field, infested with echinochloa crus galli, solanum nigrum and chenopodium album are sprayed with a tank-mix suspension of dimethenamid, sulcotrione and atrazine. The stage of the weeds is "full tillering" of echinochloa and "6-8 leaves stage" for solanum and chenopodium. The lot size is 8 meters in length and 3 meters in broadth. The application rates are 1.08 kg/ha of dimethenamid, 150 or 210 g/ha of sulcotrione and 750 g/ha of atrazine. 14 days after treatment the efficacy is evaluated.
# [4] = system: large crabgrass; test: Field trial in corn, tankmix at early post-emergence: weed control (Example 2); assay type: in vivo
# Method: A field trial is carried out employing FRONTIER® 7.5 EC and ACCENT® 75 WDG in control of large crabgrass in corn. Application is as tankmix combination at early post-emergence of the weeds (3 and 4 leaf stages). Application rates of a.i. are 1.5 and 0.75 kg/ha for dimethenamid and 37.2 and 19.2 g/ha for nicosulfuron. Combined application of 0.75 kg/ha of dimethenamid and 19.2 g/ha of nicosulfuron gave 85% control with negligible corn damage compared with 35% of nicosulfuron applied alone at 19.2 g/ha and 72% for dimethenamid at a higher rate of […]. Combined application at the higher rate of dimethenamid with 37.2 g/ha of nicosulfuron gave an even more dramatic effect with 95% control compared with 72% for dimethenamid and only 45% for nicosulfuron each alone.
molecule,measurement,setting,value
chlorimuron,Cyperus Control (DAT),"[1]; 0.06 kg a.i./ha, light to medium soil, 30 DAT",58 (30 DAT) %
"CCNc1nc(Cl)nc(NC(C)C)n1 [Atrazine, atrazine]",Solanum/Chenopodium control,[2],16%
same,Echinochloa control,[3],23%
COc1cc(OC)nc(NC(=O)NS(=O)(=O)c2ncccc2C(=O)N(C)C)n1 [nicosulfuron],control,"[4]; nicosulfuron alone, 37.2 g/ha",45%
same,control,[4]; nicosulfuron applied alone at 19.2 g/ha,35%
"COCC(C)N(C(=O)CCl)c1c(C)csc1C (centres unmarked) [Dimethenamid, 2-chloro-N-(2,4-dimethyl-3-thienyl)-N-(2-methoxy-1-methylethyl)-acetamide]",Cyperus Control (DAT),"[1]; 2.25 kg a.i./ha, light to medium soil, 30 DAT",23 (30 DAT) %
same,Cyperus Control (DAT),"[1]; 2.7 kg a.i./ha, heavy soil, 60 DAT",10 (60 DAT) %
same,Cyperus Control (DAT),"[1]; 2.7 kg a.i./ha, light to medium soil, 30 DAT",27 (30 DAT) %
same,Cyperus Control (DAT),"[1]; 2.7 kg a.i./ha, light to medium soil, 60 DAT",19 (60 DAT) %
same,control,[4]; dimethenamid alone at a higher rate of 1.25 g/ha (so in the source),72%
same,control,"[4]; dimethenamid alone, higher rate (second comparison)",72%
